Measured values taken from PubChem BioAssay (NCI).
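These data come from cells grown in 96-well plates and exposed to compound for 48 hours at five concentrations. The concentration for full growth arrest is given as TGI.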

Tests used:
Assay in all cases: DTP human tumour cell line panel, 48 h
HS 578T breast = system: HS 578T breast
NCI/ADR-RES ovarian = system: NCI/ADR-RES ovarian
TK-10 renal = system: TK-10 renal
PC-3 prostate = system: PC-3 prostate
SNB-75 CNS = system: SNB-75 CNS
HOP-62 NSCLC = system: HOP-62 NSCLC
DU-145 prostate = system: DU-145 prostate
MOLT-4 leukemia = system: MOLT-4 leukemia
HCT-15 colon = system: HCT-15 colon
SW-620 colon = system: SW-620 colon
NCI-H226 lung = system: NCI-H226 lung
CAKI-1 renal = system: CAKI-1 renal
M14 melanoma = system: M14 melanoma
OVCAR-5 ovarian = system: OVCAR-5 ovarian
SF-268 CNS = system: SF-268 CNS
OVCAR-8 ovarian = system: OVCAR-8 ovarian
SK-MEL-5 melanoma = system: SK-MEL-5 melanoma
SNB-19 CNS = system: SNB-19 CNS
SN12C renal = system: SN12C renal
NCI-H23 lung = system: NCI-H23 lung
SK-OV-3 ovarian = system: SK-OV-3 ovarian
MCF7 breast = system: MCF7 breast
CCRF-CEM leukemia = system: CCRF-CEM leukemia
SF-539 CNS = system: SF-539 CNS
UO-31 renal = system: UO-31 renal
UACC-62 melanoma = system: UACC-62 melanoma
HL-60(TB) leukemia = system: HL-60(TB) leukemia
OVCAR-3 ovarian = system: OVCAR-3 ovarian
K-562 leukemia = system: K-562 leukemia
HT29 colon = system: HT29 colon
SR leukemia = system: SR leukemia
RXF 393 renal = system: RXF 393 renal
OVCAR-4 ovarian = system: OVCAR-4 ovarian
KM12 colon = system: KM12 colon
A498 renal = system: A498 renal
HCC-2998 colon = system: HCC-2998 colon
MDA-MB-435 = system: MDA-MB-435
T-47D breast = system: T-47D breast
HCT-116 colon = system: HCT-116 colon
SF-295 CNS = system: SF-295 CNS
EKVX NSCLC = system: EKVX NSCLC
IGROV1 ovarian = system: IGROV1 ovarian
SK-MEL-28 melanoma = system: SK-MEL-28 melanoma
U251 CNS = system: U251 CNS
ACHN renal = system: ACHN renal
MDA-MB-231 breast = system: MDA-MB-231 breast
MDA-N = system: MDA-N
A549 NSCLC = system: A549 NSCLC
RPMI-8226 leukemia = system: RPMI-8226 leukemia
MALME-3M melanoma = system: MALME-3M melanoma
NCI-H522 lung = system: NCI-H522 lung
LOX IMVI melanoma = system: LOX IMVI melanoma
NCI-H460 lung = system: NCI-H460 lung
SK-MEL-2 melanoma = system: SK-MEL-2 melanoma
COLO 205 colon = system: COLO 205 colon
HOP-92 NSCLC = system: HOP-92 NSCLC
786-0 renal = system: 786-0 renal
UACC-257 melanoma = system: UACC-257 melanoma
BT-549 breast = system: BT-549 breast

Compound: CC(C)(CCCCC(C)(C)NC1=NCCO1)NC1=NCCO1
- TGI (HS 578T breast): > 10 µM
- TGI (NCI/ADR-RES ovarian): > 10 µM
- TGI (TK-10 renal): > 10 µM
- TGI (PC-3 prostate): > 10 µM
- TGI (SNB-75 CNS): > 10 µM
- TGI (HOP-62 NSCLC): > 10 µM
- TGI (DU-145 prostate): > 10 µM
- TGI (MOLT-4 leukemia): > 10 µM
- TGI (HCT-15 colon): > 10 µM
- TGI (SW-620 colon): > 10 µM
- TGI (NCI-H226 lung): > 10 µM
- TGI (CAKI-1 renal): > 10 µM
- TGI (M14 melanoma): > 10 µM
- TGI (OVCAR-5 ovarian): > 10 µM
- TGI (SF-268 CNS): > 10 µM
- TGI (OVCAR-8 ovarian): > 10 µM
- TGI (SK-MEL-5 melanoma): > 10 µM
- TGI (SNB-19 CNS): > 10 µM
- TGI (SN12C renal): > 10 µM
- TGI (NCI-H23 lung): > 10 µM
- TGI (SK-OV-3 ovarian): > 10 µM
- TGI (MCF7 breast): > 10 µM
- TGI (CCRF-CEM leukemia): > 10 µM
- TGI (SF-539 CNS): > 10 µM
- TGI (UO-31 renal): > 10 µM
- TGI (UACC-62 melanoma): > 10 µM
- TGI (HL-60(TB) leukemia): > 10 µM
- TGI (OVCAR-3 ovarian): > 10 µM
- TGI (K-562 leukemia): > 10 µM
- TGI (HT29 colon): > 10 µM
- TGI (SR leukemia): > 10 µM
- TGI (RXF 393 renal): > 10 µM
- TGI (OVCAR-4 ovarian): > 10 µM
- TGI (KM12 colon): > 10 µM
- TGI (A498 renal): > 10 µM
- TGI (HCC-2998 colon): > 10 µM
- TGI (MDA-MB-435): > 10 µM
- TGI (T-47D breast): > 10 µM
- TGI (HCT-116 colon): > 10 µM
- TGI (SF-295 CNS): > 10 µM
- TGI (EKVX NSCLC): > 10 µM
- TGI (IGROV1 ovarian): > 10 µM
- TGI (SK-MEL-28 melanoma): > 10 µM
- TGI (U251 CNS): > 10 µM
- TGI (ACHN renal): > 10 µM
- TGI (MDA-MB-231 breast): > 10 µM
- TGI (MDA-N): > 10 µM
- TGI (A549 NSCLC): > 10 µM
- TGI (RPMI-8226 leukemia): > 10 µM
- TGI (MALME-3M melanoma): > 10 µM
- TGI (NCI-H522 lung): > 10 µM
- TGI (LOX IMVI melanoma): > 10 µM
- TGI (NCI-H460 lung): > 10 µM
- TGI (SK-MEL-2 melanoma): > 10 µM
- TGI (COLO 205 colon): > 10 µM

Compound: NC1=C(c2nc(-c3ccccc3)cs2)C(c2ccco2)c2c(c3ccccc3oc2=O)O1 (stereo not given)
- TGI (HS 578T breast): > 100 µM
- TGI (NCI/ADR-RES ovarian): > 100 µM
- TGI (TK-10 renal): > 100 µM
- TGI (PC-3 prostate): > 100 µM
- TGI (SNB-75 CNS): > 100 µM
- TGI (HOP-62 NSCLC): > 100 µM
- TGI (DU-145 prostate): > 100 µM
- TGI (HCT-15 colon): > 100 µM
- TGI (SW-620 colon): > 100 µM
- TGI (NCI-H226 lung): > 100 µM
- TGI (CAKI-1 renal): > 100 µM
- TGI (M14 melanoma): > 100 µM
- TGI (OVCAR-5 ovarian): > 100 µM
- TGI (SF-268 CNS): > 100 µM
- TGI (OVCAR-8 ovarian): > 100 µM
- TGI (SK-MEL-5 melanoma): > 100 µM
- TGI (SNB-19 CNS): > 100 µM
- TGI (SN12C renal): > 100 µM
- TGI (NCI-H23 lung): > 100 µM
- TGI (SK-OV-3 ovarian): > 100 µM
- TGI (MCF7 breast): > 100 µM
- TGI (CCRF-CEM leukemia): > 100 µM
- TGI (HOP-92 NSCLC): > 100 µM
- TGI (SF-539 CNS): > 100 µM
- TGI (UO-31 renal): > 100 µM
- TGI (UACC-62 melanoma): > 100 µM
- TGI (HL-60(TB) leukemia): > 100 µM
- TGI (786-0 renal): > 100 µM
- TGI (OVCAR-3 ovarian): > 100 µM
- TGI (K-562 leukemia): > 100 µM
- TGI (HT29 colon): > 100 µM
- TGI (SR leukemia): > 100 µM
- TGI (RXF 393 renal): > 100 µM
- TGI (OVCAR-4 ovarian): > 100 µM
- TGI (A498 renal): > 100 µM
- TGI (HCC-2998 colon): > 100 µM
- TGI (MDA-MB-435): > 100 µM
- TGI (HCT-116 colon): > 100 µM
- TGI (SF-295 CNS): > 100 µM
- TGI (EKVX NSCLC): > 100 µM
- TGI (IGROV1 ovarian): > 100 µM
- TGI (SK-MEL-28 melanoma): > 100 µM
- TGI (U251 CNS): > 100 µM
- TGI (UACC-257 melanoma): > 100 µM
- TGI (ACHN renal): > 100 µM
- TGI (MDA-MB-231 breast): > 100 µM
- TGI (MDA-N): > 100 µM
- TGI (A549 NSCLC): > 100 µM
- TGI (BT-549 breast): > 100 µM
- TGI (MALME-3M melanoma): > 100 µM
- TGI (NCI-H522 lung): > 100 µM
- TGI (LOX IMVI melanoma): > 100 µM
- TGI (NCI-H460 lung): > 100 µM
- TGI (SK-MEL-2 melanoma): > 100 µM
- TGI (COLO 205 colon): > 100 µM
